The test system of series [1] is U87 cells. The series is described as follows: In vitro cytotoxicity, CCK-8 assay. It counts as cell-based, human. Conditions: for IC50: U87, 48 h, CCK-8, mean ± SD (n = 3); for cell viability: 48 h, CCK-8. How it is done:
(§1) Human HepG2 hepatocellular carcinoma cells and human U87 glioblastoma cells were purchased from Procell Life Science & Technology Co., Ltd. (Wuhan, China), human A549 lung carcinoma cells were obtained from the School of Basic Medical Sciences, Chengde Medical University, human LO2 normal hepatic cells were purchased from Jennio Biotech Co., Ltd. (Guangzhou, China). The cells were cultured in DMEM (HepG2), MEM containing 1% non-essential amino acids (U87), and RPMI-1640 (A549 and LO2), supplemented with 10% fetal bovine serum (FBS) and 1% penicillin/streptomycin at 37 °C in a humidified atmosphere with 5% CO2.
(§2) A549, HepG2, U87, and LO2 cells were each seeded in 96-well cell culture plates at a density of 6 × 10^3 cells per well and incubated at 37 °C for 24 h. Then, cells were treated with serial concentrations of free DOX or the peptide–DOX conjugates for 48 h. After incubation, CCK-8 (10 μL) was added to each well and incubated for an additional 2 h. The absorbance of each well was measured at 450 nm with a reference wavelength of 630 nm by using a Multiskan GO microplate reader (Thermo Fisher Scientific, Waltham, MA, USA). Data for each cell line treated with free DOX or PDCs were obtained from three independent experiments.

The subject of series [2] is LO2 cells. The series is described as follows: In vitro cytotoxicity, CCK-8 assay. It counts as cell-based, human. Particulars: LO2, 48 h, CCK-8, mean ± SD (n = 3). How it is done: as §1, §2
For orientation: Tetrazolium dyes change colour on reduction, which living cells bring about.

The test system of series [3] is HepG2 cells. The series is described as follows: Confocal microscopy analysis of cellular uptake. It counts as cell-based, human. How it is done:
(§3) A549, HepG2, U87, or LO2 cells were seeded on glass coverslips (5 × 10^4 cells/well) in 24-well cell culture plates and incubated at 37 °C for 24 h. Then, cells were treated with the peptide–DOX conjugates (equivalent DOX concentration of 10 μM) for 4 and 12 h, respectively. Cells treated with free DOX (10 μM) for 4 h were used as the positive control. After the drugs in each well were discarded, cells were washed three times with PBS and fixed with 4% paraformaldehyde for 12 h. Cell nuclei were stained with DAPI for 8 min. The fluorescent images of cells were observed by using a confocal laser scanning microscope (Olympas FV3000).
(§4) After removal of the peptide solution, cells were washed three times with PBS and incubated with the ^DT7-SS-DOX conjugate (equivalent DOX concentration of 10 μM) for 4 h. Cell fixation, staining, and cellular uptake analysis by confocal microscopy were conducted as aforementioned methods.

Series [4] deals with U87 cells. The series is described as follows: Confocal microscopy analysis of cellular uptake. It counts as cell-based, human. As for the experimental part: as §3, §4
The test system of series [5] is A549 cells. The series is described as follows: Confocal microscopy analysis of cellular uptake. It counts as cell-based, human. How it is done:
as §3, §4

Series [6] has as its system LO2 cells. The series is described as follows: Confocal microscopy analysis of cellular uptake. Particulars: LO2, 10 μM, 4 h, confocal laser scanning microscopy. It counts as cell-based, human. As for the experimental part: as §3
Series [7] deals with HepG2 cells. The series is described as follows: In vitro cytotoxicity, CCK-8 assay. It counts as cell-based, human. Conditions: for cell viability: 48 h, CCK-8. How it is done: as §1, §2
For series [8], the system named is A549 cells. The series is described as follows: In vitro cytotoxicity, CCK-8 assay. It counts as cell-based, human. Particulars: for cell viability: 48 h, CCK-8. How it is done:
as §1, §2

The nature of series [9]: Reduction-triggered degradation / drug release by GSH. Conditions: 37 °C; for remaining at 1 h, 100 µM: read-out: conjugate remained undegraded; for t1/2 of degradation in 5 mM GSH: intact conjugate by HPLC, mean ± SD. It counts as physicochemical. How it is done: A stock solution of ^LT7-SS-DOX or ^DT7-SS-DOX was diluted by adding 5 mM or 5 μM GSH dissolved in acetonitrile-PBS (3:7, v/v) to a final volume of 800 μL with 100 μM conjugate, and the mixture was incubated at 37 °C. Aliquots (100 μL) were taken from the incubation solution at scheduled time intervals and diluted with acetonitrile–PBS (3:7, v/v, 200 μL). After filtration, the intact conjugate that remained in the sample was analyzed by HPLC.

A short description of series [10]: In vitro stability of conjugates in mouse serum. Particulars: 37 °C; for half-life at 100 µM: mouse serum (200 µL in 800 µL, diluted with water), 80 μL of 1 mM conjugate stock + 520 μL ultra-pure water + 200 μL mouse serum, methanol quench, centrifugation, intact PDC by HPLC (C18, 254 nm), mean ± SD, read-out: t1/2 of degradation in mouse serum (converted). It counts as in vitro ADME. How it is done: The in vitro stability experiment of the conjugates was conducted by co-incubation with mouse serum, as previously described, with minor modifications. An 80 μL of ^LT7-SS-DOX or ^DT7-SS-DOX stock solution (1 mM) was diluted by adding ultra-pure water (520 μL) and mouse serum (200 μL). The mixture was incubated at 37 °C, aliquots (100 μL) were taken at scheduled time intervals, and then methanol (300 μL) was added to terminate the incubation. After centrifugation at 10,000 rpm for 10 min, the intact PDC that remained in the supernatant was analyzed by HPLC.

[11] abbreviates: 5 mM GSH in acetonitrile-PBS (3:7, v/v), 100 μM conjugate, 1 h, HPLC, n = 3.
The mark [12] stands for this setting: 5 mM GSH in acetonitrile-PBS (3:7, v/v), 100 μM conjugate, n = 3.

Read-outs that look alike come from different tables or passages of the source. Square brackets hold non-standard residues; d marks the D form. Peptide text beside a SMILES is read from it. * marks the point of attachment. X1 = COc1cccc2c1C(=O)c1c(O)c3c(c(O)c1C2=O)C[C@@](O)(C(=O)CO)C[C@@H]3O[C@H]1C[C@H](NC(=O)CCS*)[C@H](O)[C@H](C)O1 Where only a bound is given, the exact number is not on record here.

By IC50 is commonly meant the concentration that gives 50% inhibition. Read a high IC50 as weaker potency. Turning to `COc1cccc2c1C(=O)c1c(O)c3c(c(O)c1C2=O)C[C@@](O)(C(=O)CO)C[C@@H]3O[C@H]1C[C@H](N)[C@H](O)[C@H](C)O1` [DOX, Doxorubicin], the values for the IC50 in series [1] and in [2] were 1.65 ± 0.2 µM and 1.29 ± 0.18 µM, respectively. Further, the “location of red (DOX) fluorescence in cells” value in series [3] (HepG2, 10 μM, 4 h, confocal laser scanning microscopy) is on record as “located in the cell nuclei”; in series [4] (U87, 10 μM, 4 h, confocal laser scanning microscopy), “located in the cell nuclei”; in series [5] (A549, 10 μM, 4 h, confocal laser scanning microscopy), “located in the cell nuclei”; in series [6] it was “located in the cell nuclei”.

Turning to `CC[C@@H](C)[C@@H](NC(=O)[C@@H](Cc1ccc(O)cc1)NC(=O)[C@H]1CCCN1C(=O)[C@@H](CCCNC(=N)N)NC(=O)[C@H](N)Cc1c[nH]cn1)C(=O)N[C@H](C)C(=O)N[C@H](Cc1c[nH]cn1)C(=O)N[C@H](CSSCCC(=O)N[C@H]1C[C@H](O[C@H]2C[C@](O)(C(=O)CO)Cc3c(O)c4c(c(O)c32)C(=O)c2c(OC)cccc2C4=O)O[C@@H](C)[C@H]1O)C(=O)O` [^DT7-SS-DOX] (H-[dH][dR][dP][dY][dI][dA][dH][dC](X1)-OH), the half-maximal inhibitory concentration (IC50) was 7.01 ± 1.64 µM in [7] (HepG2, 48 h, CCK-8, mean ± SD (n = 3)); 5.7 ± 0.22 µM in series [1]; 20.6 ± 4.81 µM in series [8] (A549, 48 h, CCK-8, mean ± SD (n = 3)); over 100 µM in series [2]. Besides, the remaining at 1 h, 100 µM in series [9] (setting [11]) was 72.1%. Besides, in series [9] (setting [12]), the “t1/2 of degradation in 5 mM GSH” value was 1.93 ± 0.13 h. Besides, in series [9] (5 mM GSH), the “t1/2 in 5 mM GSH, times longer than that of ^LT7-SS-DOX” value is about 8 times. The “fluorescence intensity after pre-treatment with TfR affinity peptide versus without (TfR competitive inhibition assay)” value in series [3] (HepG2, pre-treated with TfR affinity peptide 100 μM 8 h, then conjugate at equivalent DOX 10 μM for 4 h) is on record as “lower”; in [4] (U87, pre-treated with TfR affinity peptide 100 μM 8 h, then conjugate at equivalent DOX 10 μM for 4 h) it was “lower”; in series [5] (A549, pre-treated with TfR affinity peptide 100 μM 8 h, then conjugate at equivalent DOX 10 μM for 4 h) it was “lower”. Further, in series [10], the half-life at 100 µM was 8.58 ± 0.85 h.

Broadly, the cell viability is the share of living cells, or the viability signal relative to a control. A high value points to less harm to the cells. On to `CC[C@H](C)[C@H](NC(=O)[C@H](C)NC(=O)[C@H](Cc1c[nH]cn1)NC(=O)[C@@H](N)CSSCCC(=O)N[C@H]1C[C@H](O[C@H]2C[C@](O)(C(=O)CO)Cc3c(O)c4c(c(O)c32)C(=O)c2c(OC)cccc2C4=O)O[C@@H](C)[C@H]1O)C(=O)N[C@@H](Cc1ccc(O)cc1)C(=O)N1CCC[C@H]1C(=O)N[C@@H](CCCNC(=N)N)C(=O)N[C@@H](Cc1c[nH]cn1)C(=O)O` [^LT7-SS-DOX], for which the cell viability is 73.1% in series [7] (HepG2, equal DOX concentration of 20 µM); 61.5% in series [7] (HepG2, equal DOX concentration of 40 µM); 95.1% in series [1] (U87, equal DOX concentration of 20 µM); 41.0% in [1] (U87, equal DOX concentration of 40 µM); 83.2% in series [8] (A549, equal DOX concentration of 20 µM); 67.2% in [8] (A549, equal DOX concentration of 40 µM). Also, in series [9] (5 μM GSH in acetonitrile-PBS (3:7, v/v), 100 μM conjugate, 1 h, HPLC, n = 3), the remaining at 1 h, 100 µM was determined as 93.7%. Moreover, the conjugate remained undegraded result in series [9] (setting [11]) is recorded as “completely degraded”. Also, the “t1/2 of degradation in 5 mM GSH” value in series [9] (setting [12]) was found to be 0.26 ± 0.01 h. Further, in [10] (80 μL of 1 mM stock + 520 μL water + 200 μL mouse serum, 1 h, HPLC), the “intact conjugate in mouse serum at 1 h” value was “almost entirely degraded”. Besides, the half-life at 100 µM in series [10] was 0.37 ± 0.02 h.

Values taken from paper PMC11052316, “New Transferrin Receptor-Targeted Peptide–Doxorubicin Conjugates: Synthesis and In Vitro Antitumor Activity” (Molecules, 2024).
